The target in the assay is T1, human kinase Mps-1 (Homo sapiens, UniProt P33981).
T1 construct: N-terminally GST-tagged human full length recombinant Mps-1 kinase; GST (N); purchased Invitrogen, Karslruhe, Germany PV4071
T1 sequence (P33981 1-857): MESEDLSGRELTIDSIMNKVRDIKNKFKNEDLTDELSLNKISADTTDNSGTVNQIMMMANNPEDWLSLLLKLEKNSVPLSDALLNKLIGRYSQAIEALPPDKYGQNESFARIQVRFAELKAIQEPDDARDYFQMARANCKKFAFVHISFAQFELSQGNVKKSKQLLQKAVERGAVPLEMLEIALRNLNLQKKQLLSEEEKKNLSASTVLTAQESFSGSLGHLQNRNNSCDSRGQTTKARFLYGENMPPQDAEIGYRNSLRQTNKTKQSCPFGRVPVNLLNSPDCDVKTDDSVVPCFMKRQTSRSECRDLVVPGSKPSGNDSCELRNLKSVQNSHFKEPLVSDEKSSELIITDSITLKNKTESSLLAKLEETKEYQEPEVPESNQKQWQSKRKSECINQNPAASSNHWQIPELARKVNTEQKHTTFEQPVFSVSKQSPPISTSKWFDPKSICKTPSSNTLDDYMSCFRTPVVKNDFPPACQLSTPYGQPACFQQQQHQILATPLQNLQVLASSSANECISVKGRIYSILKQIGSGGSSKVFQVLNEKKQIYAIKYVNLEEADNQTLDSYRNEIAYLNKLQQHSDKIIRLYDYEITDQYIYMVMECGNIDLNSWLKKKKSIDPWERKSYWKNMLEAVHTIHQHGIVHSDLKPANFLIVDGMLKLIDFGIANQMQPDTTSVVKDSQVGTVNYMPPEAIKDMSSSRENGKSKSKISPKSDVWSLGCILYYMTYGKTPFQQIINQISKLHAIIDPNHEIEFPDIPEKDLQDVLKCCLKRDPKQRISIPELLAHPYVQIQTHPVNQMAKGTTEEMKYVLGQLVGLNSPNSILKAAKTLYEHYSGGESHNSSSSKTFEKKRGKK
The assay is described as follows: Mps-1 kinase assay (HTRF). Type of assay: biochemical. How it is done:
The human kinase Mps-1 phosphorylates a biotinylated substrate peptide. Detection of the phosphorylated product is achieved by homogenous time-resolved fluorescence resonance energy transfer (HTRF) from Europium-labelled anti-phospho-Serine/Threonine antibody as donor to streptavidin labelled with cross-linked allophycocyanin (SA-XLent) as acceptor. Compounds are tested for their inhibition of the kinase activity.
N-terminally GST-tagged human full length recombinant Mps-1 kinase (purchased from Invitrogen, Karslruhe, Germany, cat. no PV4071) was used. As substrate for the kinase reaction a biotinylated peptide of the amino-acid sequence […] (C-terminus in amide form, purchased from Biosynthan GmbH, Berlin) was used.
The concentration of Mps-1 in the assay was adjusted to the activity of the enzyme lot and was chosen appropriate to have the assay in the linear range, typical enzyme concentrations were in the range of about 1 nM (final conc. in the 5 μl assay volume).
The resulting mixture was incubated 1 h at 22° C. to allow the binding of the phosphorylated peptide to the anti-phospho(Ser/Thr)-Europium-antibody. Subsequently the amount of phosphorylated substrate was evaluated by measurement of the resonance energy transfer from the Europium-labelled anti-phospho(Ser/Thr) antibody to the Streptavidin-XLent.
For orientation: TR-FRET usually uses a lanthanide donor and a delayed reading to cut background.

Bounds are passed on as bounds.

For orientation: IC50 means the concentration needed to halve the response being measured. Lower therefore signals greater potency.

`COc1cc(C(=O)NC(C)(C)CO)ccc1Nc1nc2ccc(-c3ccc(C(=O)NCC(F)(F)F)c(C)c3)cn2n1` [Example 11.024, 4-[2-({4-[(1-hydroxy-2-methylpropan-2-yl)carbamoyl]-2-methoxyphenyl}amino)[1,2,4]triazolo[1,5-a]pyridin-6-yl]-2-methyl-N-(2,2,2-trifluoroethyl)benzamide]: the IC50 came out at 3.84 nM.
As to `N#Cc1ccccc1Nc1nc2ccc(-c3cccc(C(=O)NCCO)c3)cn2n1` [Example 11.070, 3-{2-[(2-cyanophenyl)amino][1,2,4]triazolo[1,5-a]pyridin-6-yl}-N-(2-hydroxyethyl)benzamide], half-maximal inhibition (IC50) was put at 29.7 nM.
The same measure for `COc1cc(C(=O)NC(C)(C)C)ccc1Nc1nc2ccc(-c3ccc(NC(=O)CC(F)(F)F)cc3)cn2n1` [Example 11.101, N-tert-butyl-3-methoxy-4-[(6-{4-[(3,3,3-trifluoropropanoyl)amino]phenyl}[1,2,4]triazolo [1,5-a]pyridin-2-yl)amino]benzamide]: 2.53 nM; for `CC(=O)Nc1cccc(-c2ccc3nc(Nc4ccc(OC(F)(F)F)cc4)nn3c2)c1` [Example 2.7, N-[3-(2-{[4-(trifluoromethoxy)phenyl]amino}[1,2,4]tri-azolo[1,5-a]pyridin-6-yl)phenyl]acetamide]: 3300 nM.
On to `CCOc1cc(C(=O)NCCS(C)(=O)=O)ccc1Nc1nc2ccc(-c3cccc(C(=O)NCC(F)(F)F)c3)cn2n1` [Example 11.086, 3-ethoxy-N-[2-(methylsulfonyl)ethyl]-4-[(6-{3-[(2,2,2-trifluoroethyl)carbamoyl]phenyl}[1,2,4]triazolo [1,5-a]pyridin-2-yl)amino]benzamide], for which the IC50 is ≤ 1 nM.
The same measure for `COc1cc(C(=O)NC(C)(C)CO)ccc1Nc1nc2ccc(-c3ccc(C(=O)NCC(C)C)cc3)cn2n1` [Example 11.022, N-(1-hydroxy-2-methylpropan-2-yl)-3-methoxy-4-[(6-{4-[(2-methylpropyl)carbamoyl]phenyl}[1,2,4]triazolo [1,5-a]pyridin-2-yl)amino]benzamide]: 4.36 nM; for `CCCNC(=O)c1cccc(-c2ccc3nc(Nc4ccccc4C#N)nn3c2)c1` [Example 11.052, 3-{2-[(2-cyanophenyl)amino][1,2,4]triazolo[1,5-a]pyridin-6-yl}-N-propylbenzamide]: 6.37 nM; for `COc1ccccc1-c1ccc2nc(Nc3ccccc3C#N)nn2c1` [Example 3.13, 2-{[6-(2 methoxyphenyl)[1,2,4]triazolo[1,5-a]pyridin-2-yl]amino}benzonitrile]: 1200 nM.
The same measure for `CC(=O)Nc1cccc(-c2ccc3nc(Nc4cccnc4)nn3c2)c1` [Example 2.4, N-{3-[2-(pyridin-3-ylamino)[1,2,4]triazolo [1,5-a]pyridin-6-yl]phenyl}acetamide]: 3100 nM.
As to `COc1ccccc1Nc1nc2ccc(-c3cccc(NS(C)(=O)=O)c3)cn2n1` [Example 8.3, N-(3-{2-[(2-methoxyphenyl)amino][1,2,4]triazolo[1,5-a]pyridin-6-yl}phenyl)methanesulfonamide], the IC50 was determined as 190 nM.
With `COc1c(C)cc(-c2ccc3nc(Nc4ccccc4C#N)nn3c2)cc1C` [Example 3.19, 2-{[6-(4-methoxy-3,5-dimethylphenyl)[1,2,4]triazolo[1,5-a]pyridin-2-yl]amino}benzonitrile], 96 nM corresponded to half-maximal inhibition (IC50).
The same measure for `COc1cc(C(=O)NCCO)ccc1Nc1nc2ccc(-c3ccc(C(=O)NCC(F)(F)F)cc3)cn2n1` [Example 11.019, N-(2-hydroxyethyl)-3-methoxy-4-[(6-{4-[(2,2,2-trifluoroethyl)carbamoyl]phenyl}[1,2,4]triazolo [1,5-a]pyridin-2-yl)amino]benzamide]: 1.78 nM; for `CCNC(=O)c1ccc(Nc2nc3ccc(-c4cccc(C(=O)NCC(F)(F)C(F)(F)F)c4)cn3n2)c(OC)c1` [Example 11.083, N-ethyl-3-methoxy-4-[(6-{3-[(2,2,3,3,3-pentafluoropropyl)carbamoyl]phenyl}[1,2,4]triazolo[1,5-a]pyridin-2-yl)amino]benzamide]: ≤ 1 nM.

Source of the values: patent publication US20130121994A1, “TRIAZOLOPYRIDINE DERIVATIVES” (BAYER INTELLECTUAL PROPERTY GMBH, priority 2009, published 2013).
